Test results as given in US8497286B2, “Organic compounds” (Novartis AG, priority 2007, dated 2013).

These compounds were tested against recombinant human renin (Homo sapiens (Human), UniProt P00797) (assay: Renin inhibitory activity in vitro, FRET assay (item 2)). Details: recombinant human renin 0.5 nM, 2 h at 37° C., pH 7.4, peptide substrate 4 μM.
Type: biochemical
Description: Inter alia the following in vitro tests may be used: • 1) Recombinant human renin (expressed in Chinese Hamster Ovary cells and purified using standard methods) at 7.5 nM concentration is incubated with test compound at various concentrations for 1 h at RT in 0.1 M Tris-HCl buffer, pH 7.4, containing 0.05 M NaCl, 0.5 mM EDTA and 0.05% CHAPS. Synthetic peptide substrate […] is added to a final concentration of 2 μM and increase in fluorescence is recorded at an excitation wave-length of 350 nm and at an emission wave-length of 500 nm in a microplate spectro-fluorimeter. IC50 values are calculated from percentage of inhibition of renin activity as a function of test compound concentration (Fluorescence Resonance Energy Transfer, FRET, assay). […] Synthetic peptide substrate […] is added to a final concentration of 4 μM and increase in fluorescence is recorded at an excitation wave-length of 340 nm and at an emission wave-length of 485 nm in a microplate spectro-fluorimeter. IC50 values are calculated from percentage of inhibition of renin activity as a function of test compound concentration (Fluorescence Resonance Energy Transfer, FRET, assay). […] The enzyme reaction is stopped by adding an excess of a blocking inhibitor. The product of the reaction is separated by capillary electrophoresis and quantified by spectrophotometric measurement at […] wave-length. IC50 values are calculated from percentage of inhibition of renin activity as a function of test compound concentration. […] The enzyme reaction is stopped by adding an excess of a blocking inhibitor. The product of the reaction is separated by capillary electrophoresis and quantified by spectrophotometric measurement at […] wave-length. IC50 values are calculated from percentage of inhibition of renin activity as a function of test compound concentration. […] Renin inhibitory activity was assessed in vitro by the method as outlined above in item 2).

recombinant human renin, sequence (P00797 67-406): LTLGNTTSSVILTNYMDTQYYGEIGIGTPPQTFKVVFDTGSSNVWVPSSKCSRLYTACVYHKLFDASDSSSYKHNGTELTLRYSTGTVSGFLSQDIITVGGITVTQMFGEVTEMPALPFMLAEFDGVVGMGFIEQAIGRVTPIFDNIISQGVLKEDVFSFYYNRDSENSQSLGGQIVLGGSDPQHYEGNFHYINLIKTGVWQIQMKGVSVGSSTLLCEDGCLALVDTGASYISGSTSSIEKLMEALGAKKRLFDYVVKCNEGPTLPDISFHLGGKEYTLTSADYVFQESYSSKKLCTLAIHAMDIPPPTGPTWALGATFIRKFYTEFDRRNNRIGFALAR

SMILES | IC50
CCOC[C@@H](CC(C)C)NC(=O)[C@@H]1CNC[C@H](C(=O)N(c2cc(OCC)c(CC)cn2)C2CC2)[C@@H]1O [Example 14] | 0.3 nM
CCOC[C@@H](CC(C)C)NC(=O)[C@@H]1CNC[C@H](C(=O)N(c2cc(OC)c(C(C)C)cn2)C2CC2)[C@@H]1O [Example 13] | 0.8 nM
CCOC[C@H](NC(=O)[C@@H]1CNC[C@H](C(=O)N(c2cc(OCC)c(CC)cn2)C2CC2)[C@@H]1O)C(C)C [Example 18] | 0.6 nM
CCOC[C@H](NC(=O)[C@@H]1CNC[C@H](C(=O)N(c2ccc(C(C)C)cn2)C2CC2)[C@@H]1O)C(C)C [Example 16] | 2.5 nM
CCOC[C@@H](CC(C)C)NC(=O)[C@@H]1CNC[C@H](C(=O)N(CC(C)C)c2cc(OCCCO)c(C(C)C)cn2)[C@@H]1O [Example 15] | 6 nM
CCOC[C@@H](CC(C)C)NC(=O)[C@@H]1CNC[C@H](C(=O)N(c2ccc(C(C)C)cn2)C2CC2)C1 [Example 1] | 0.9 nM
CCOC[C@@H](NC(=O)[C@@H]1CNC[C@H](C(=O)N(c2ccc(C(C)C)cn2)C2CC2)C1)C1CCCCC1 [Example 2] | 3 nM
CCOC[C@@H](CC(C)C)NC(=O)[C@@H]1CNC[C@H](C(=O)N(CC(C)C)c2cc(OCCCOC)c(C(C)C)cn2)C1 [Example 3] | 0.6 nM
COC[C@H]1CC[C@H](NC(=O)[C@@H]2CNC[C@H](C(=O)N(c3cc(OC)c(C(C)C)cn3)C3CC3)[C@@H]2O)CC1 [Example 17] | 9 nM
